Data taken from ChEMBL document CHEMBL3608207, “Synthesis, characterization, evaluation and molecular dynamics studies of 5, 6-diphenyl-1,2,4-triazin-3(2H)-one derivatives bearing 5-substituted 1,3,4-oxadiazole as potential anti-inflammatory and analgesic agents” (Eur J Med Chem, 2015).

Tests used:
[1] = tested on: Rattus norvegicus; test: Anti-inflammatory activity in rat model of acute inflammation assessed as inhibition of carrageenan-induced paw oedema dosed at equimolar oral dose relative to 10 mg/kg, po indomethacin dosed 1 hr before carrageenan injection and measured 4 hrs after carrageenan injection; type: functional
[2] = tested on: Rattus norvegicus; test: Anti-inflammatory activity in rat Freund's adjuvant induced arthritis model of chronic inflammation assessed as inhibition of right hind paw swelling at equimolar oral dose relative to 10 mg/kg, po indomethacin dosed after 14 days from day of adjuvant injection until day 21 and measured on day 15; type: functional
[3] = tested on: Rattus norvegicus; test: Gastro-intestinal toxicity in rat Freund's adjuvant induced arthritis model of chronic inflammation assessed as ulcer index at equimolar oral dose relative to 10 mg/kg, po indomethacin dosed after 14 days from day of adjuvant injection until day 21 and measured on day 21; type: organism-based; details: in vivo, 336 h
[4] = tested on: Rattus norvegicus; test: (§1) Gastro-intestinal toxicity in rat Freund's adjuvant induced arthritis model of chronic inflammation assessed as histological changes at equimolar oral dose relative to 10 mg/kg, po indomethacin dosed after 14 days from day of adjuvant injection until day 21 and measured on day 21 by hematoxylin and eosin staining based microscopy; type: organism-based; details: in vivo, 336 h
[5] = tested on: Rattus norvegicus; test: (§2) Hepato-toxicity in rat Freund's adjuvant induced arthritis model of chronic inflammation assessed as assessed as SGPT level at equimolar oral dose relative to 10 mg/kg, po indomethacin dosed after 14 days from day of adjuvant injection until day 21 and measured on day 21 (reference value: 34.23 +/- 2.5 U/mL); type: organism-based; details: in vivo, 336 h
[6] = tested on: Rattus norvegicus; test: as §2, with “Renal toxicity” for “Hepato-toxicity”, “total protein” for “SGPT”, “1.78” for “34.23”, “0.11 g/dL)” for “2.5 U/mL)”; type: organism-based; details: in vivo, 336 h
[7] = tested on: Rattus norvegicus; test: as §2, with “Renal toxicity” for “Hepato-toxicity”, “creatinine” for “SGPT”, “0.62” for “34.23”, “0.049 mg/dL)” for “2.5 U/mL)”; type: organism-based; details: in vivo, 336 h
[8] = tested on: Rattus norvegicus; test: as §1, with “Hepato-toxicity” for “Gastro-intestinal toxicity”; type: organism-based; details: in vivo, 336 h
[9] = tested on: Rattus norvegicus; test: as §1, with “Renal” for “Gastro-intestinal”; type: organism-based; details: in vivo, 336 h
[10] = tested on: Mus musculus; test: Analgesic activity in Swiss albino mouse assessed as reduction in formalin-induced paw licking by measuring time spent on licking during phase-1 at equimolar oral dose relative to 10 mg/kg, po indomethacin dosed 1 hr before formalin challenge and measured 30 mins after formalin injection; type: functional
[11] = tested on: Rattus norvegicus; test: Toxicity in healthy albino rat assessed as induction of diarrhoea up to 500 mg/kg, po; type: organism-based; details: in vivo
[12] = tested on: Rattus norvegicus; test: Toxicity in healthy albino rat assessed as induction of sleep up to 500 mg/kg, po; type: organism-based; details: in vivo

SMILES | inhibition (INH) [1] [%] | inhibition (INH) [2] [%] | UI [3] | Activity [4] | Activity [5] [U/ml] | Activity [6] [g/dL] | Activity [7] [mg/dL] | Activity [8] | Activity [9] | inhibition (INH) [10] [%] | Activity [11] | Activity [12]
Nc1ccc(-c2nnc(Cn3nc(-c4ccccc4)c(-c4ccccc4)nc3=O)o2)cc1 | 56.96 | 47.9 | 12 | Non-toxic | 39.11 | 1.86 | 0.86 | Non-toxic | Non-toxic | 12.45 | Non-toxic | Non-toxic
O=c1nc(-c2ccccc2)c(-c2ccccc2)nn1Cc1nnc(-c2ccc([N+](=O)[O-])cc2)o1 | 54.76 | 43.82 | 16 | – | 45.28 | 1.84 | 0.88 | – | – | 13.68 | Non-toxic | Non-toxic
COc1ccc(-c2nnc(Cn3nc(-c4ccccc4)c(-c4ccccc4)nc3=O)o2)cc1 | 52.67 | 43.46 | 11 | – | 41.31 | 1.81 | 0.91 | – | – | 10.59 | Non-toxic | Non-toxic
O=c1nc(-c2ccccc2)c(-c2ccccc2)nn1Cc1nnc(-c2ccc(O)cc2O)o1 | 59.74 | 49.82 | 10 | Non-toxic | 39.67 | 1.88 | 0.72 | Non-toxic | Non-toxic | 10.73 | Non-toxic | Non-toxic
O=c1nc(-c2ccccc2)c(-c2ccccc2)nn1Cc1nnc(-c2ccc(Cl)cc2)o1 | 54.99 | 45.86 | 18 | – | 42.45 | 1.91 | 0.78 | – | – | 12.11 | Non-toxic | Non-toxic
